Measured values published in ChEMBL document CHEMBL4706685 (J Med Chem, 2021).
Values after ≈ are worked out from the molar mass of the structure shown.

Tests used:
[1] = Lipophilicity, logP of compound by HPLC analysis; assay type: physicochemical
[2] = Solubility in 0.1M sodium phosphate buffer at pH 7.4; assay type: physicochemical
CYP2B6 = experiment: Induction of CYP2B6 mRNA expression in human hepatocytes up to 30 uM relative to positive control; assay type: ADME, cell-based, Hepatocyte; settings: read-out: Activity
CYP1A2 = experiment: Induction of CYP1A2 mRNA expression in human hepatocytes up to 30 uM relative to positive control; assay type: ADME, cell-based, Hepatocyte; settings: read-out: Activity
[3] = Drug excretion in female Sprague-Dawley rat urine/feces assessed as drug recovery at […], po administered as single dose using [14C]-EC5026 measured through 168 hrs postdose; settings: in vivo
[4] = Terminal half life in human at 8 to 24 mg; assay type: ADME; settings: dose 8-24 mg, read-out: beta t1/2 (converted)
[5] = Drug excretion in male Sprague-Dawley rat urine/feces assessed as drug recovery at 3 mg/kg, po administered as single dose using [14C]-EC5026 measured through 168 hrs postdose; settings: in vivo
CYP3A4 = experiment: Induction of CYP3A4 mRNA expression in human hepatocytes up to 30 uM relative to positive control; assay type: ADME, cell-based, Hepatocyte; settings: read-out: Activity

SMILES | logP ([1]; read-out: logP) | logP [1] | solubility [2] [µg/mL] | Emax (CYP2B6) [%] | Emax (CYP1A2) [%] | Drug recovery [3] [%] | half-life [4] [h] | Drug recovery [5] [%] | Emax (CYP3A4) [%]
O=C(Nc1ccc(OC(F)(F)F)c(F)c1)NC1CCN(C(=O)C2CC2)CC1 | 4.2 |  |  |  |  |  |  |  | 
CC[C@H](C)C(=O)N1CCC(CC(=O)Nc2ccc(OC(F)(F)F)c(F)c2)CC1 |  | 3.2 | 404.41 (≈ 1000 µM) |  |  |  |  |  | 
CC[C@H](C)C(=O)N1CCC(NC(=O)Nc2ccc(OC(F)(F)F)c(F)c2)CC1 | 6 |  |  | < 20 | < 20 | 96.5 | 42 | 96.5 | < 20
